The numbers were not newly measured in PubChem BioAssay AID1259409 (Chemical Carcinogenesis Research Information System (CCRIS), 2018), which cites them from elsewhere.

Structures are written as SMILES. Where a SMILES comes first, the peptide text is derived from it. Bridges are numbered along the chain shown (N, C = ends). [ ]: non-standard residue; d: D form.

In the data set the test system is rodent chemically induced tumor inhibition, incidence and multiplicity. Kind of data set: CCRIS tumor inhibitor studies.

On to `C=C(C)[C@H]1Cc2c(ccc3c2O[C@@H]2COc4cc(OC)c(OC)cc4[C@@H]2C3=O)O1`, for which the “tumour outcome (control, treated, inhibition, significance)” value by setting is: (Carcinogen: AZOXYMETHANE (25843-45-2), Dose [Inhibitor]: 0, 500 PPM IN DIET FOR 4 WK, BEGINNING 1 WK BEFORE THE FIRST CARCINOGEN DOSE (STUDY DURATION: 38 WK), Route [Inhibitor]: ORAL, Species: RAT, Strain/Sex: F344/MALE, Target Tissue: Type of Lesion: LARGE INTESTINE: ADENOCARCINOMA, Dose [Carcinogen]: 15 MG/KG BW 1 INJECTION/WK FOR 3 WK, Promoter: NONE USED) 9/15 (60%), 6/19 (32%), 47%, not significant; (Carcinogen: AZOXYMETHANE (25843-45-2), Dose [Inhibitor]: 0, 500 PPM IN DIET FOR 4 WK, BEGINNING 1 WK BEFORE THE FIRST CARCINOGEN DOSE (STUDY DURATION: 38 WK), Route [Inhibitor]: ORAL, Species: RAT, Strain/Sex: F344/MALE, Target Tissue: Type of Lesion: LARGE INTESTINE: ADENOMA, Dose [Carcinogen]: 15 MG/KG BW 1 INJECTION/WK FOR 3 WK, Promoter: NONE USED) 4/15 (27%), 2/19 (11%), 59%, not significant; (Carcinogen: AZOXYMETHANE (25843-45-2), Dose [Inhibitor]: 0, 500 PPM IN DIET FOR 4 WK, BEGINNING 1 WK BEFORE THE FIRST CARCINOGEN DOSE (STUDY DURATION: 38 WK), Route [Inhibitor]: ORAL, Species: RAT, Strain/Sex: F344/MALE, Target Tissue: Type of Lesion: SMALL INTESTINE: ADENOCARCINOMA, Dose [Carcinogen]: 15 MG/KG BW 1 INJECTION/WK FOR 3 WK, Promoter: NONE USED) 4/15 (27%), 1/19 (5%), 81%, not significant; (Carcinogen: AZOXYMETHANE (25843-45-2), Dose [Inhibitor]: 0, 500 PPM IN DIET FOR 4 WK, BEGINNING 1 WK BEFORE THE FIRST CARCINOGEN DOSE (STUDY DURATION: 38 WK), Route [Inhibitor]: ORAL, Species: RAT, Strain/Sex: F344/MALE, Target Tissue: Type of Lesion: SMALL INTESTINE: ADENOMA, Dose [Carcinogen]: 15 MG/KG BW 1 INJECTION/WK FOR 3 WK, Promoter: NONE USED) 1/15 (7%), 0/19 (0%), 100%, not significant; (Carcinogen: AZOXYMETHANE (25843-45-2), Dose [Inhibitor]: 0, 500 PPM IN DIET FOR 34 WK, BEGINNING 1 WK AFTER THE LAST CARCINOGEN DOSE (STUDY DURATION: 38 WK), Route [Inhibitor]: ORAL, Species: RAT, Strain/Sex: F344/MALE, Target Tissue: Type of Lesion: LARGE INTESTINE: ADENOCARCINOMA, Dose [Carcinogen]: 15 MG/KG BW 1 INJECTION/WK FOR 3 WK, Promoter: NONE USED) 9/15 (60%), 3/16 (19%), 68%, p= 0.0226; (Carcinogen: AZOXYMETHANE (25843-45-2), Dose [Inhibitor]: 0, 500 PPM IN DIET FOR 34 WK, BEGINNING 1 WK AFTER THE LAST CARCINOGEN DOSE (STUDY DURATION: 38 WK), Route [Inhibitor]: ORAL, Species: RAT, Strain/Sex: F344/MALE, Target Tissue: Type of Lesion: LARGE INTESTINE: ADENOMA, Dose [Carcinogen]: 15 MG/KG BW 1 INJECTION/WK FOR 3 WK, Promoter: NONE USED) 4/15 (27%), 1/16 (6%), 78%, not significant. The “tumour outcome (control, treated, inhibition, significance)” value is, setting by setting: (Carcinogen: AZOXYMETHANE (25843-45-2), Dose [Inhibitor]: 0, 500 PPM IN DIET FOR 34 WK, BEGINNING 1 WK AFTER THE LAST CARCINOGEN DOSE (STUDY DURATION: 38 WK), Route [Inhibitor]: ORAL, Species: RAT, Strain/Sex: F344/MALE, Target Tissue: Type of Lesion: SMALL INTESTINE: ADENOCARCINOMA, Dose [Carcinogen]: 15 MG/KG BW 1 INJECTION/WK FOR 3 WK, Promoter: NONE USED) 4/15 (27%), 1/16 (6%), 78%, not significant; (Carcinogen: AZOXYMETHANE (25843-45-2), Dose [Inhibitor]: 0, 500 PPM IN DIET FOR 34 WK, BEGINNING 1 WK AFTER THE LAST CARCINOGEN DOSE (STUDY DURATION: 38 WK), Route [Inhibitor]: ORAL, Species: RAT, Strain/Sex: F344/MALE, Target Tissue: Type of Lesion: SMALL INTESTINE: ADENOMA, Dose [Carcinogen]: 15 MG/KG BW 1 INJECTION/WK FOR 3 WK, Promoter: NONE USED) 1/15 (7%), 0/16 (0%), 100%, not significant. Moreover, the outcome (Carcinogen: DIETHYLNITROSAMINE, Dose [Inhibitor]: 0, 0.005, 0.5, 500 PPM FOR 11 OR 43 WK BEGINNING 1 WK AFTER CARCINOGEN (STUDY DURATION: 45 WK), Dose [Inhibitor]: 0, 0.005, 0.5, 500 PPM FOR 11 OR 43 WK BEGINNING 1 WK AFTER CARCINOGEN (STUDY DURATION: 45 WK), Route [Inhibitor]: DIET, Species: RAT, Strain/Sex: F344/MALE, Target Tissue: Type of Lesion: LIVER: HEPATOCELLULAR CARCINOMA, HEPATOCELLULAR ADENOMA, Dose [Carcinogen]: 100 MG/KG BW TWICE AT 1 WK INTERVALS (STUDY DURATION: 45 WK)) is reported as 60; 35; 65; 100: 55; 65; 50; 100.
For `CC1=CCC(C(C)(O)CO)CC1` (stereo not drawn), where the note is “Carcinogen: 7,12-DIMETHYLBENZ[A]ANTHRACENE, 57-97-6, Dose [Inhibitor]: 0, 1% IN DIET FOR 3 WK BEGINNING 2 WK PRIOR TO CARCINOGEN DOSE (STUDY DURATION: 20 WK), Route [Inhibitor]: ORAL, Species: RAT, Strain/Sex: WISTAR/FEMALE, Target Tissue: Type of Lesion: MAMMARY GLAND: CARCINOMA, Dose [Carcinogen]: 50 MG/KG IN SESAME OIL ONCE, Promoter: NONE USED”, the “tumour outcome (control, treated, inhibition, significance)” value was 98%, 84%, 14%, not significant.
Turning to `CC(C)[C@@H]1NC(=O)[C@H](CCCCN)NC(=O)[C@@H](Cc2c[nH]c3ccccc23)NC(=O)[C@H](Cc2ccc(O)cc2)NC(=O)[C@@H](NC(=O)[C@H](N)Cc2ccccc2)CSSC[C@@H](C(=O)N[C@@H](Cc2c[nH]c3ccccc23)C(N)=O)NC1=O` (H-[dF]CY[dW]KVCW-NH2; disulfide 2-7), the “tumour outcome (control, treated, inhibition, significance)” value is, setting by setting: (Carcinogen: N-BUTYL-N-(4-HYDROXYBUTYL)NITROSAMINE, 3817-11-6, Dose [Inhibitor]: 0, 50 UG/RAT/D FOR 12 WK BEGINNING POST CARCINOGEN TREATMENT (STUDY DURATION: 17 WK), Route [Inhibitor]: SUBCUTANEOUS, Species: RAT, Strain/Sex: F344/FEMALE, Target Tissue: Type of Lesion: URINARY BLADDER: CARCINOMA IN SITU, Dose [Carcinogen]: 0.05% IN DRINKING WATER FOR 4 WK, Promoter: MITOMYCIN C, 50-07-7) 10/40 (25%), 1/20 (5%), 80%, p<0.001; (Carcinogen: N-BUTYL-N-(4-HYDROXYBUTYL)NITROSAMINE, 3817-11-6, Dose [Inhibitor]: 0, 50 UG/RAT/D FOR 12 WK BEGINNING POST CARCINOGEN TREATMENT (STUDY DURATION: 17 WK), Route [Inhibitor]: SUBCUTANEOUS, Species: RAT, Strain/Sex: F344/FEMALE, Target Tissue: Type of Lesion: URINARY BLADDER: INVASIVE CARCINOMA, Dose [Carcinogen]: 0.05% IN DRINKING WATER FOR 4 WK, Promoter: MITOMYCIN C, 50-07-7) 12/40 (30%), 0/20 (0%), 100%, not calculated; (Carcinogen: N-BUTYL-N-(4-HYDROXYBUTYL)NITROSAMINE, 3817-11-6, Dose [Inhibitor]: 0, 50 UG/RAT/D FOR 12 WK BEGINNING POST CARCINOGEN TREATMENT (STUDY DURATION: 17 WK), Route [Inhibitor]: SUBCUTANEOUS, Species: RAT, Strain/Sex: F344/FEMALE, Target Tissue: Type of Lesion: URINARY BLADDER: PAPILLOMA, Dose [Carcinogen]: 0.05% IN DRINKING WATER FOR 4 WK, Promoter: MITOMYCIN C, 50-07-7) 20/40 (50%), 11/20 (55%), -10%, not significant; (Carcinogen: N-NITROSOBIS(2-OXOPROPYL)AMINE, 60599-38-4, Dose [Inhibitor]: 0, 35 UG/D FROM OSMOTIC PUMP FOR 2 MO, Route [Inhibitor]: SUBCUTANEOUS IMPLANT, Species: HAMSTER, Strain/Sex: SYRIAN/FEMALE, Target Tissue: Type of Lesion: PANCREAS: ADENOCARCINOMA, Promoter: NONE USED) 12/12 (100%), 6/11 (55%), 45%, not calculated.
As for `CC1=C(/C=C/C(C)=C/C=C/C(C)=C\C(=O)Nc2nn[nH]n2)C(C)(C)CCC1`, the “tumour outcome (control, treated, inhibition, significance)” value is on record as 29/98 (30%), 26/100 (26%), 13%, not significant (Carcinogen: N-BUTYL-N-(4-HYDROXYBUTYL)NITROSAMINE, 3817-11-6, Dose [Inhibitor]: 1.5 MMOL/KG DIET DAILY FOR 159 D STARTING 1 WK AFTER THE FINAL CARCINOGEN DOSE (STUDY DURATION: 216 D), Route [Inhibitor]: ORAL, Species: MOUSE, Strain/Sex: BDF/MALE, Target Tissue: Type of Lesion: URINARY BLADDER: TRANSITIONAL CELL CARCINOMA, Dose [Carcinogen]: 7.5 MG 1/WK FOR 8 WK, Promoter: NONE USED) and 29/98 (30%), 26/100 (26%), 13%, not significant (Carcinogen: N-BUTYL-N-(4-HYDROXYBUTYL)NITROSAMINE, 3817-11-6, Dose [Inhibitor]: 1.5 MMOL/KG/D IN DIET FOR 159 D STARTING 1 WK POST CARCINOGEN TREATMENT (STUDY DURATION: 216 D), Route [Inhibitor]: ORAL, Species: MOUSE, Strain/Sex: BDF/MALE, Target Tissue: Type of Lesion: URINARY BLADDER: TRANSITIONAL CELL CARCINOMA, Dose [Carcinogen]: 7.5 MG 1/WK FOR 8 WK, Promoter: NONE USED).
As to `CCC(C)(C)C(=O)O[C@H]1C[C@@H](C)C=C2C=C[C@H](C)[C@H](CC[C@@H]3C[C@@H](O)CC(=O)O3)[C@H]21`, the “tumour outcome (control, treated, inhibition, significance)” value is, setting by setting: (Carcinogen: 1,2-DIMETHYLHYDRAZINE, 540-73-8, Dose [Inhibitor]: 0, 0.02% IN DIET FOR 25 WK (STUDY DURATION: 25 WK), Route [Inhibitor]: ORAL, Species: MOUSE, Strain/Sex: ICR/FEMALE, Target Tissue: Type of Lesion: COLON: TUMOR, Dose [Carcinogen]: 10 MG/KG BW 1/WK FOR 15 WK, Promoter: NONE USED) 16/30 (53%), 12/30 (40%), 25%, not significant; (Carcinogen: 1,2-DIMETHYLHYDRAZINE, 540-73-8, Dose [Inhibitor]: 0, 0.1% IN DIET FOR 25 WK (STUDY DURATION: 25 WK), Route [Inhibitor]: ORAL, Species: MOUSE, Strain/Sex: ICR/FEMALE, Target Tissue: Type of Lesion: COLON: TUMOR, Dose [Carcinogen]: 10 MG/KG BW 1/WK FOR 15 WK, Promoter: NONE USED) 16/30 (53%), 11/30 (37%), 30%, not significant.
